Source: patent US20040235922A1, “Compositions and methods for inducing adipose tissue cell death” (priority 2003, published 2004)
Entries after “also recorded” stand apart in the source; their conditions may differ.

Columns and labels:
[1] = system: Epi/Par fat pads (white adipose tissue); assay: Adipose tissue apoptosis assay, % DNA fragmentation (Example 1); format: in vivo, mice; conditions: 21 days
Protocol: Animals: Five week old male (n=20) and female (n=20) ICR mice (Harlan Research Laboratories, Indianapolis, Ind.) were allowed to acclimate for one week prior to the experiment start date. Animals were housed singly in suspended wire cages and were provided ground rodent chow (ProLab® RMH 2500; Purina Mills, St. Louis, Mo.) and water ad libitum. Ambient room temperature was maintained and the light/dark cycle was 0600/1800 hours, respectively. Animals were cared for in accordance with the Guide for the Care and Use of Laboratory Animals (Institute of Laboratory Animal Resources Commission on Life Sciences National Research Council. Guide for the Care and Use of Laboratory Animals. National Academy of Sciences, 1996). Prior to the start of the study, animals were briefly anesthetized with isofluorane and an IPPT-200 transponder (programmable ID and temperature, BMDS, Seaford, Del.) was implanted subcutaneously between the scapulae.
Materials: Test articles included clenbuterol (Sigma Chemical Company, St. Louis, Mo., item # C5423) and ractopamine hydrochloride—Paylean® 9 (Elanco Animal Health, Indianapolis, Ind.). Clenbuterol is available as a pure product, and ractopamine is readily available as a type A medicated article. Paylean® 9 contains about 20 g ractopamine hydrochloride per kilogram in a ground corncob base. In order to achieve doses of 200 and 800 ppm it was necessary to add about […] of product per kilogram of diet. Control and clenbuterol diets were prepared with about 80 g of alphacel, which is a diluent used to mimic the effect of the corncob in the ractopamine product. The dose of clenbuterol used in this experiment was similar to those used in previous experiments with mice (Agbenyega E T, and Wareham A C. Effect of clenbuterol on skeletal muscle atrophy in mice induced by the glucocorticoid dexamethasone. Comp Biochem Physiol Comp Physiol 1992;102:141-145, Rothwell N. J., and Stock M J. Modification of body composition by clenbuterol in normal and dystrophic (mdx) mice. Biosci Rep 1985;5:755-760, Hyltander A, Svaninger G, and Lundholm K. The effect of clenbuterol on body composition in spontaneously eating tumour-bearing mice. Biosci Rep 1993;13:325-331, Hayes A, and Williams DA. Long-term clenbuterol administration alters the isometric contractile properties of skeletal muscle from normal and dystrophin-deficient mdx mice. Clin Exp Pharmacol Physiol 1994;21:757-765, Dupont-Versteegden EE. Exercise and clenbuterol as strategies to decrease the progression of muscular dystrophy in mdx mice. J Appl Physiol 1996;80:734-741).
DNA Isolation and Apoptosis Assay: Only the Epi and Par fat pads had sufficient tissue for the apoptosis assay. Apoptosis was assayed in two ways: DNA isolated from fat tissue was separated into two fractions: fragmented and genomic DNA. First, the fragmented DNA was run on an agarose gel in order to identify a ladder pattern of internucleosomal DNA degradation that is characteristic of apoptosis. Second, apoptosis was quantified as the ratio of fragmented- to total-DNA, multiplied by 100. Briefly, approximately 50 mg of the Epi or Par white adipose tissue was homogenized in lysis buffer (10 mM Tris-HCL, pH 8.0, 10 mM EDTA, pH 8.0; 0.5% Triton X-100) and centrifuged at 14,000× g for 15 min to separate fragmented DNA from genomic DNA. The supernatant, containing fragmented DNA, was extracted with phenol-chloroform-isoamyl alcohol (25:24:1), and the DNA was precipitated by adding polyacryl carrier (Molecular Research Center, Inc., Cincinnati, Ohio) and ethanol. Genomic (non-fragmented) DNA was extracted from the pellet with DNAzol and the polyacryl carrier. DNA in each fraction was quantified by the PicoGreen method (Molecular Probes, Inc., Eugene, Oreg.) and fluorescence was measured using a SpectroMax Gemini (Molecular Devices).
Statistical Analysis: Analysis of variance (SAS) was used to determine significance of treatment and gender effects. […]

[2] = Clenbuterol feeding for 21 days in WT and GDF-8 KO mice: body weight, weight gain, food intake, feed efficiency (Example 2); format: in vivo; conditions: 200 ppm in diet
Protocol: The effects of clenbuterol on muscularity and adiposity in male and female GDF-8 knockout (GDF-8 KO) (n=20) and wild type (WT) mice (n=20) were tested by feeding 0 or 200 ppm clenbuterol for 21 days. […] For all other variables, GDF-8 KO and WT mice responded similarly to clenbuterol.
(§1) Animals: Twelve-week old male (n=10) and female (n=10) GDF-8 (−/−) knockout mice and male (n=10) and female (n=10) GDF-8 (+/+) WT mice were used in the study. GDF-8 knockout mice, which were derived from the 129/SvJ mouse strain, were originally obtained from MetaMorphix Inc. and were bred in-house for the study. Mice were housed singly in suspended wire cages in a room maintained at 22±1 C and with a 12:12 hour light/dark cycle. Mice were provided ground rodent chow (ProLab® RMH 2500; Purina Mills, St. Louis, Mo.) and water ad libitum. Mice were cared for in accordance with the Guide for the Care and Use of Laboratory Animals.
(§2) Materials: Clenbuterol (Sigma Chemical Company, St. Louis, Mo., item# C5423), was thoroughly mixed into the ground rodent chow to provide a 200 ppm concentration.
(§3) Daily Observations: Food intake was measured daily, and body weight was measured on days 0, 3, 7, 10, 14, 17, 20, and 21 at approximately 1430 h during the treatment period. At 15 weeks of age (day 21), a final body weight measurement was obtained approximately one hour prior to euthanasia, and mice were sacrificed by decapitation following CO2 asphyxiation.
Statistical Analysis: The study was analyzed as a 2×2×2 factorial design (N=5/cell). Analysis of variance (SAS) was used to determine significance of main effects of gender, genotype (WT vs. GDF-8 KO) and clenbuterol (0 vs. 200 ppm) and interactions. Statistically significant differences are defined at the 95% confidence interval.
Feed efficiency was calculated as the total food intake (g)/cumulative weight gain (g). There was a trend (p=0.07) for clenbuterol to improve feed efficiency (g feed/g weight gain) (Table 3).

serum leptin = assay: Serum leptin concentration in WT and GDF-8 KO mice (Example 2); format: in vivo; conditions: 200 ppm in diet
Protocol: as §1, §2, §3

mouse adipocytes = conditions: in vitro; cited from earlier work
[3] = system: female and male WT and GDF-8 KO mice; assay: Adipose, muscle and heart tissue weights in WT and GDF-8 KO mice (Example 2); conditions: 200 ppm in diet, 21 days
[4] = WT and GDF-8 KO mice, main effect, Mean ± SEM

CC(C)(C)NCC(O)c1cc(Cl)c(N)c(Cl)c1 (stereo not drawn) [Clenbuterol, clenbuterol]
Percent DNA fragmentation (apoptosis) in the Epi/Par fat pad compared to control ([1]; 200 ppm clenbuterol, 800 ppm ractopamine in diet, p<0.05, listed as clenbuterol): increased; also recorded: significant increase in apoptosis
Adipose tissue apoptosis (% DNA fragmentation) in Epi/Par fat pads ([1]; 200 ppm in diet, mice, control 1.7±0.4%): 5.2 ± 1.1%
DNA fragmentation in retroperitoneal or inguinal fat pads ([1]; diet, mice): Neither clenbuterol nor ractopamine treatments increased
Effect on final body weight (FBW) [2]: did not significantly affect
Food Intake [2, 4]: 4.78 ± 0.16 g/day
Wt Gain [2, 4]: 0.165 ± 0.01 g/day
Feed Efficiency ([2]; WT and GDF-8 KO mice, main effect, p = 0.07): 34.4 g feed/g wt gain
Effect on food intake, body weight or body composition ([2]; WT or GDF-8 KO mice): did not affect
Final Body Wt ([2]; female and male WT and GDF-8 KO mice, main effect, Mean ± SEM): 29.9 ± 1.2 g
Feed efficiency in females compared to control ([2]; female mice): no effect; also recorded: not in females
Weight gain in females compared to control ([2]; female mice): not in females
Weight gain compared to control ([2]; main effect, p<0.05): increased
Feed efficiency in males compared to control ([2]; male mice): more than doubled; also recorded: significantly improved
More efficient (feed efficiency) compared to males fed control diet ([2]; male mice): more than 250%
Weight gain in males compared to control ([2]; male mice): significantly increased; also recorded: twice as much
Effect on serum leptin concentrations (serum leptin): did not significantly affect; also recorded: not affected
Serum Leptin Concentration (serum leptin; 20 days, Mean ± SEM): 3.98 ± 0.49 ng/mL
Insulin-induced lipolysis in mouse adipocytes (mouse adipocytes): inhibited
Lipolysis in mouse adipocytes (mouse adipocytes): stimulated
EPI/PAR (and RP) fat pad weights compared to control [3]: decreased; also recorded: reduced
Heart weight compared to control [3]: increased
Weights of dissected skeletal muscles [3]: did not affect; also recorded: no effect
EPI/PAR (and RP) fat pad weights compared to control ([3]; listed as clenbuterol): reduced; also recorded: smaller
Heart weight compared to control ([3]; listed as clenbuterol): significantly increased
